Several values for one entry are separate records, joined by “and”; a condition that tells them apart may be missing. Equal values may be shown once. Activity calls are given as the source filed them.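 How the source made its calls: active means compounds giving half or more protection of infected cells from virus-caused growth loss, again on retest; inactive means the rest.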

The assay relates to CEM cells HIV-1 protection, formazan growth assay. Description: NCI AIDS Antiviral Assay. The note with it: for IC50: measured here: growth of uninfected CEM cells. The gist of the method:
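Soluble formazan readout of cell growth; CEM cells ± HIV-1; 5 drug concs. ≥50% protection → retest; ≥50% again = moderately active; reproducible 100% = confirmed active.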

For `Cc1nc2c(=O)n(C)c(=O)nc-2n(CCO)c1C`, the EC50 was over 100 µM and the IC50 came out at 83.2 µM. As for `CC1=CCC2CC1C(C(=O)c1c[nH]c3ccccc13)=NC2(C)C` (centres undefined), the EC50 was over 81.3 µM and the IC50 is over 81.3 µM. `O=S(=O)(O)Cc1ccc([As](=O)(O)O)cc1` showed an EC50 of over 200 µM and an IC50 of 129 µM. The matching figures for `C=CC1(C)CCC2=C(CCC3C(C)(C(=O)OC)CCCC23C)C1=O` (centres undefined): over 200 µM and 28.8 µM.

Consider `CCC(CC)(CO)CNc1cc(Cl)nc(N)n1`, for which the EC50 is over 200 µM and the IC50 was over 100 µM. Turning to `Cc1cc(-c2c(O)c3c(ccc4ccccc43)oc2=O)no1`, the EC50 was over 200 µM and the IC50 was 93.3 µM. The matching figures for `Cc1c(C#N)c2n(c1C)CCCC(=O)N2`: over 219 µM and over 219 µM. The corresponding values for `COc1cnnc2c(C)c(-c3ccccc3)nn12` are over 200 µM and 46.8 µM. As for `S=c1[nH]c2ccc(Br)cc2c(=S)n1-c1ccccc1`, the EC50 was over 195 µM and the IC50 stood at 56.2 µM. The corresponding values for `O=c1c2ccccc2nc(-c2ccccc2)n1NC(=S)Nc1ccc(Cl)cc1` are over 123 µM and 107 µM. The matching figures for `C=CCOC1=C(OC(C)=O)C(C2COC(C)(C)O2)OC1=O` (centres undefined): over 200 µM and 16.2 µM. As to `O=C(O)c1ccc(Nc2nc3ccccc3nc2-c2cccs2)cc1`, the EC50 is over 200 µM and the IC50 was found to be 60.3 µM. The corresponding values for `COC(=O)C1=C(C(=O)[C@H](Cc2ccccc2)NC(=O)c2ccccc2)CCC1` are over 95.5 µM and 89.1 µM. For `Nc1ccc(N=Nc2ccc(-c3ccc(N=Nc4c(S(=O)(=O)O)cc5cc(S(=O)(=O)O)c(N=Nc6ccc([N+](=O)[O-])cc6)c(N)c5c4O)cc3)cc2)c2cc(S(=O)(=O)O)ccc12`, the EC50 was over 19.5 µM and the IC50 was over 19.5 µM. Take `COc1ccc(C2=C(Cl)c3cc(OC)c(OC)cc3C2=O)cc1OC`: the EC50 was over 200 µM and the IC50 worked out at 1.45 µM. With `N[C@H](CCOc1ccc(/C(=N/O)C(=O)N[C@H]2CN([C@@H](C(=O)O)c3ccc(O)cc3)C2=O)cc1)C(=O)O`, the EC50 is over 200 µM and the IC50 was over 200 µM. Take `O=C(NC(=Nc1ccccc1)SCSC(=Nc1ccccc1)NC(=O)c1ccc(F)cc1)c1ccc(F)cc1`: the EC50 is over 200 µM and the IC50 is over 200 µM. Regarding `Nc1nc(N)c(-c2ccccc2)c(C(=O)Nc2nccs2)n1`, the EC50 is over 22.9 µM and the IC50 was over 22.9 µM. For `CCCCCCCCOCC(O)COC(C)C` (centres undefined), the EC50 was over 200 µM and the IC50 stood at 115 µM. The corresponding values for `C=C1CCC2CC1C(C(=O)c1c[nH]c3ccccc13)=NC2(C)C` (centres undefined) are over 407 µM and over 407 µM. The corresponding values for `N#CC1=C(N)N(/N=C/c2ccccc2)C(c2ccccc2)C1(C#N)C#N` (centres undefined) are over 200 µM and 3.89 µM. `CCN(CCO)C(=O)C1(c2ccccc2)CCCCC1`: the EC50 is over 501 µM and the IC50 is 60.3 µM. The corresponding values for `COc1ccc(NC(=S)Nc2cc(C)cc(C)n2)cc1` are over 200 µM and over 200 µM. The matching figures for `Nc1n[n+](CC(=O)c2ccccc2)c2sc(-c3ccccc3)nn12`: over 200 µM and 45.7 µM. The corresponding values for `CC(C)OP(=O)(Cc1cc(C(C)(C)C)c(O)c(C(C)(C)C)c1)OC(C)C` are over 67.6 µM and over 67.6 µM. As to `Cc1cn2cc(-c3cccs3)nc2s1`, the EC50 is over 200 µM and the IC50 is 87.1 µM.

Turning to `O=S(Nc1ccccc1)c1ccc(N2CCOCC2)cc1` (centres undefined), the EC50 was over 200 µM and the IC50 was 18.2 µM. The matching figures for `O=S1(=O)CCCS(=O)(=O)C1CC1S(=O)(=O)CCCS1(=O)=O`: over 245 µM and over 245 µM.

Regarding `CSC(=S)N(C)c1nc(=[N+](C)C)ss1`, the result was inactive.

Regarding `O=C(c1ccc(Cl)cc1Cl)N(C(=O)N1CCC(c2ccccc2)CC1)c1ccccc1`, the EC50 was over 200 µM and the IC50 is over 200 µM. Turning to `COc1ccc(Nc2ccc3ccccc3c2-c2c(O)ccc3ccccc23)cc1`, the EC50 was over 200 µM and the IC50 was 10.5 µM.

Consider `CN(C(=O)C12C3C4C5C3C1(C(=O)O)C5C42)C(C)(C)C` (centres undefined), for which the EC50 was over 955 µM and the IC50 was over 955 µM. In the case of `CCCCCCCCC(=O)NCCCNCCCNC(=O)CCCCCCCC`, the EC50 was over 100 µM and the IC50 was found to be 10 µM. The matching figures for `COc1ccc2nc3c([N+](=O)[O-])ccc4c3c(c2c1)N=CN4CCN(C)C`: over 100 µM and 1.02 µM. The corresponding values for `C#CCN(Cc1ccc2nc(-c3ccccc3)c(Cl)nc2c1)c1ccc(F)cc1` are over 200 µM and 27.5 µM. As for `N[C@H](CSSC[C@@H](N)C(=O)Nc1ccc2ccccc2c1)C(=O)Nc1ccc2ccccc2c1`, the EC50 was over 200 µM; the IC50 is 2.75 µM and 3.55 µM. As for `CC12NN=NC1C(=O)NC2=O` (centres undefined), the EC50 is over 200 µM and the IC50 was over 200 µM.

Take `COc1ccc(NC(=O)C(=O)C(C(=O)c2ccccc2)C2OC(=O)c3ccccc32)c([N+](=O)[O-])c1` (centres undefined): the EC50 is over 135 µM and the IC50 is over 135 µM. Turning to `CN1C(=O)C2CCC(=O)N2c2cccnc21` (centres undefined), the EC50 is over 200 µM and the IC50 was over 200 µM. Turning to `COC(=O)C(C(=O)C(=O)Nc1cccc(O)c1)c1nc2ccc(Cl)cc2[nH]c1=O` (centres undefined), the EC50 was over 87.1 µM and the IC50 stood at 85.1 µM. Regarding `CN(CCO)CCC1COc2ccccc2O1` (centres undefined), the result was inactive. As for `COC(=O)[C@@H]1C[C@@H](O)CN1C(=O)c1ccc([N+](=O)[O-])cc1[N+](=O)[O-]`, the EC50 was over 200 µM and the concentration for half-maximal inhibition (IC50) came to 129 µM. Turning to `CCOC(=O)C(Cc1ccc(N=NN(C)C)cc1)NC(=O)CC1c2ccccc2-c2ccccc21` (centres undefined), the EC50 was over 11 µM and the IC50 was 6.46 µM. For the compound `O=c1[nH]c(=O)n(C2CC(F)(F)C(CO)O2)cc1COCC(F)(F)F` (centres undefined), the EC50 is over 174 µM and the IC50 was over 174 µM. Take `O=C(NCCCN(CCCCN(CCCNC(=O)c1cc(S(=O)(=O)O)cc(O)c1O)C(=O)c1cc(S(=O)(=O)O)cc(O)c1O)C(=O)c1cc(S(=O)(=O)O)cc(O)c1O)c1cc(S(=O)(=O)O)cc(O)c1O`: the EC50 was over 200 µM and the IC50 came to 72.4 µM. The corresponding values for `[N-]=[N+]=NC1(c2ccccc2)C(=O)Nc2ccccc2C1=O` (centres undefined) are over 58.9 µM and 30.2 µM.

Regarding `O=C1c2ccccc2C(=O)c2c(Nc3cccc4c3C(=O)c3ccccc3C4=O)cccc21`, the EC50 was over 200 µM and the IC50 is over 200 µM. `CN(C)/C=N/n1c2ccccc2c2ccccc21`: the EC50 is over 200 µM and the IC50 was found to be 110 µM. The matching figures for `Nc1ccn(C2CSC(CO)CO2)c(=O)n1` (centres undefined): over 513 µM and 407 µM. With `C/C=C1\CN(C)C2Cc3c([nH]c4ccccc34)[C@H](c3c(OC)ccc4c5c([nH]c34)C3(C(=O)OC)CC4CC(CC)C3N(CC5)C4)CC1C2C(=O)OC` (some centres undefined), the result was inactive.

Regarding `O=C(O)c1ccccc1CC(Cc1ccc2c(c1)CCC2)C(=O)O` (centres undefined), the EC50 was over 200 µM and the IC50 is over 200 µM.

The values above are taken from PubChem BioAssay AID179 (DTP/NCI, 2004).
